For 36 molecules, IC50 results are on record in US20260035387A1 (BIOGEN MA INC., priority 2022, published 2026).

In this assay the test system is mutant Huntington (HTT) protein. Nature of the assay: HTT Mutant HTRF iPSC assay (mHTT protein lowering). The note with it: human iPSC derived from a HTT patient with a poly-Q49 mutation. Type of assay: cell-based. On the technique in general: TR-FRET usually uses a lanthanide donor and a delayed reading to cut background.

`Cc1cn2cc(NC(=O)c3cc4ccc(C5CCC6(CNC6)C5)nc4s3)cc(F)c2n1` (stereo not drawn) [Compound 182, N-(8-fluoro-2-methylimidazo[1,2-a]pyridin-6-yl)-6-(2-azaspiro[3.4]octan-6-yl)thieno[2,3-b]pyridine-2-carboxamide] had an IC50 of 100 to 1000 nM.

`COc1cc2nn(C)cc2cc1NC(=O)c1cc2ncc(N3CCC4(CCN4C)C3)nc2s1` (single isomer, unassigned) [Compound 264] had an IC50 of less than 100 nM.

`Cc1cn2cc(NC(=O)c3cc4ncc(N5CCC6(CN(C)C6)C5)nc4s3)cc(F)c2n1` [Compound 257, N-(8-fluoro-2-methylimidazo[1,2-a]pyridin-6-yl)-3-(2-methyl-2,6-diazaspiro[3.4]octan-6-yl)thieno[2,3-b]pyrazine-6-carboxamide] registered an IC50 of 100 to 1000 nM.

In turn, `COc1c(NC(=O)c2nc3ccc(N4CCC5(CCCN5C)C4)nc3s2)cn2cc(C)nc2c1F` (single isomer, unassigned) [Compound 128] had a 50% inhibitory concentration (IC50) of less than 100 nM.

In turn, `Cc1cn2cc(NC(=O)c3cc4ccc(N5CCC(N(C)C)C5)nc4s3)ccc2n1` (stereo in doubt) [Compound 26, (S)-6-(3-(dimethylamino)pyrrolidin-1-yl)-N-(2-methylimidazo[1,2-a]pyridin-6-yl)thieno[2,3-b]pyridine-2-carboxamide] yielded a 50% inhibitory concentration (IC50) of 100 to 1000 nM.

Take `COc1cc2nn(C)cc2cc1NC(=O)c1cc2ccc(C3CCCN(C)C3)nc2s1` (single isomer, unassigned) [Compound 185]: the IC50 was less than 100 nM.

`COc1cc(NC(=O)c2cc3nc(N4CCC5(CCCN5C)C4)ccc3o2)cn2cc(C)nc12` (single isomer, unassigned) [Compound 174] had an IC50 of less than 100 nM.

In turn, `CCN[C@@H]1CCN(c2ccc3cc(C(=O)Nc4cc(F)c5nc(C)cn5c4)sc3n2)C1` (stereo in doubt) [Compound 68, 6-[(3R)-3-(ethylamino)pyrrolidin-1-yl]-N-(8-fluoro-2-methyl-imidazo[1,2-a]pyridin-6-yl)thieno[2,3-b]pyridine-2-carboxamide] gave an IC50 of less than 100 nM.

Molecule `Cc1cn2cc(NC(=O)c3cc4ccc(C5CCNCC5)nc4s3)cc(F)c2n1` [Compound 85, N-(8-fluoro-2-methylimidazo[1,2-a]pyridin-6-yl)-6-(piperidin-4-yl)thieno[2,3-b]pyridine-2-carboxamide] showed a 50% inhibitory concentration (IC50) of less than 100 nM.

As for `CCN1CCN(c2ccc3nc(C(=O)Nc4cn5cc(C)nc5c(C)n4)sc3n2)CC1` [Compound 119, N-(2,8-dimethylimidazo[1,2-a]pyrazin-6-yl)-5-(4-ethylpiperazin-1-yl)thiazolo[5,4-b]pyridine-2-carboxamide], the half-inhibitory concentration (IC50) lay within 100 to 1000 nM.

With `COc1cc2nn(C)cc2cc1NC(=O)c1cc2ccc(N3CC[C@@]4(CCCN4C)C3)nc2s1` (single isomer, unassigned) [Compound 223], the concentration for half-maximal inhibition (IC50) was less than 100 nM.

As to `Cc1cn2cc(NC(=O)c3cc4ncc(N5CCC(N(C)C)C5)cc4o3)cc(F)c2n1` (stereo not drawn) [Compound 86, 6-[3-(dimethylamino)pyrrolidin-1-yl]-N-(8-fluoro-2-methyl-imidazo[1,2-a]pyridin-6-yl)furo[3,2-b]pyridine-2-carboxamide], the half-inhibitory concentration (IC50) lay in the range of 100 to 1000 nM.

Consider `COc1cc2nn(C)cc2cc1NC(=O)c1cc2ccc(N3CCC4(CN(C)C4)C3)nc2s1` [Compound 221, N-(6-methoxy-2-methyl-2H-indazol-5-yl)-6-(2-methyl-2,6-diazaspiro[3.4]octan-6-yl)thieno[2,3-b]pyridine-2-carboxamide], for which the 50% inhibitory concentration (IC50) is less than 100 nM.

The molecule `COc1cn2nc(C)cc2cc1NC(=O)c1cc2ccc(N3CCC4(CCCN4C)C3)nc2s1` (single isomer, unassigned) [Compound 225] yielded an IC50 of less than 100 nM.

`COc1nc(NC(=O)c2cc3ccc(N4CCC(N(C)C)C4)nc3s2)cn2cc(C)nc12` (single isomer, unassigned) [Compound 199] displayed an IC50 of less than 100 nM.

On to `CN[C@@H]1CCN(c2ccc3cc(C(=O)Nc4cc(OC)c5nc(C)cn5c4)sc3n2)C1` [Compound 220, (R)-N-(8-methoxy-2-methylimidazo[1,2-a]pyridin-6-yl)-6-(3-(methylamino)pyrrolidin-1-yl)thieno[2,3-b]pyridine-2-carboxamide], for which the IC50 was less than 100 nM.

Take `Cc1cn2cc(NC(=O)c3cc4ccc(N5C[C@H]6CCN[C@H]6C5)nc4s3)cc(F)c2n1` [Compound 245, N-(8-fluoro-2-methylimidazo[1,2-a]pyridin-6-yl)-6-((3aR,6aR)-hexahydropyrrolo[3,4-b]pyrrol-5(1H)-yl)thieno[2,3-b]pyridine-2-carboxamide]: the IC50 is less than 100 nM.

Consider `Cc1cn2cc(NC(=O)c3cc4ccc(N5CC[C@]6(CCCN6C)C5)nc4s3)nc(C(F)F)c2n1` (single isomer, unassigned) [Compound 255], for which the concentration for half-maximal inhibition (IC50) was less than 100 nM.

For the molecule `CN(C)C1CCN(c2ccc3cc(C(=O)Nc4nc5cnccn5n4)sc3n2)C1` (stereo not drawn) [Compound 64, N-([1,2,4]triazolo[1,5-a]pyrazin-2-yl)-6-(3-(dimethylamino)pyrrolidin-1-yl)thieno[2,3-b]pyridine-2-carboxamide], the IC50 is 1000 to 9000 nM.

Molecule `Cc1cn2cc(NC(=O)c3nc4ccc(N5C[C@H]6CN(C)C[C@H]65)nc4s3)cc(F)c2n1` [Compound 104, N-(8-fluoro-2-methylimidazo[1,2-a]pyridin-6-yl)-5-((1R,5S)-3-methyl-3,6-diazabicyclo[3.2.0]heptan-6-yl)thiazolo[5,4-b]pyridine-2-carboxamide] registered an IC50 of less than 100 nM.

`Cc1cn2cc(NC(=O)c3cc4ccc(N5CC[C@H](N(C)C)C5)nc4s3)nc(C)c2n1` [Compound 50, (S)-6-(3-(dimethylamino)pyrrolidin-1-yl)-N-(2,8-dimethylimidazo[1,2-a]pyrazin-6-yl)thieno[2,3-b]pyridine-2-carboxamide]: the 50% inhibitory concentration (IC50) lay within 100 to 1000 nM.

`Cc1cn2cc(NC(=O)c3cc4ccc([C@H]5CCCNC5)nc4s3)cc(F)c2n1` (single isomer, unassigned) [Compound 81] displayed a 50% inhibitory concentration (IC50) of less than 100 nM.

The molecule `Cc1cn2cc(NC(=O)c3cc4ccc(N5CCC(N(C)C)C5)nc4s3)nc(C)c2n1` (stereo not drawn) [Compound 5, 6-(3-(dimethylamino)pyrrolidin-1-yl)-N-(2,8-dimethylimidazo[1,2-a]pyrazin-6-yl)thieno[2,3-b]pyridine-2-carboxamide] returned an IC50 of 100 to 1000 nM.

Turning to `Cc1cn2cc(NC(=O)c3cc4ccc(N5CCCC5)nc4s3)nc(C)c2n1` [Compound 57, N-(2,8-dimethylimidazo[1,2-a]pyrazin-6-yl)-6-(pyrrolidin-1-yl)thieno[2,3-b]pyridine-2-carboxamide], the IC50 lay in the range of 1000 to 9000 nM.

As for `COc1cc2nc(C)cn2cc1NC(=O)c1cc2ccc(N3CC[C@@]4(CCCN4C)C3)nc2s1` (single isomer, unassigned) [Compound 252], the IC50 was less than 100 nM.

With `Cc1nc2c(F)cc(NC(=O)c3cc4ccc(N5CCC(N(C)C)C5)nc4s3)cc2o1` (stereo not drawn) [Compound 71, 6-(3-(dimethylamino)pyrrolidin-1-yl)-N-(4-fluoro-2-methylbenzo[d]oxazol-6-yl)thieno[2,3-b]pyridine-2-carboxamide], the IC50 is less than 100 nM.

On to `Cc1cn2cc(NC(=O)c3cc4ccc(NCC(C)(C)CN(C)C)nc4s3)ccc2n1` [Compound 41, 6-((3-(dimethylamino)-2,2-dimethylpropyl)amino)-N-(2-methylimidazo[1,2-a]pyridin-6-yl)thieno[2,3-b]pyridine-2-carboxamide], for which the IC50 fell in the range of 1000 to 9000 nM.

Take `CCOc1cn2nc(C)cc2cc1NC(=O)c1cc2ccc(N3CC4(CCN(C)C4)C3)nc2s1` [Compound 256, N-(6-ethoxy-2-methylpyrazolo[1,5-a]pyridin-5-yl)-6-(6-methyl-2,6-diazaspiro[3.4]octan-2-yl)thieno[2,3-b]pyridine-2-carboxamide]: the IC50 is less than 100 nM.

The molecule `COc1cc2nn(C)cc2cc1NC(=O)c1cc2ccc(N3CCC(N4CCC4)C3)nc2s1` (stereo not drawn) [Compound 234, 6-(3-(azetidin-1-yl)pyrrolidin-1-yl)-N-(6-methoxy-2-methyl-2H-indazol-5-yl)thieno[2,3-b]pyridine-2-carboxamide] returned an IC50 of less than 100 nM.

Molecule `Cc1cn2cc(NC(=O)c3cc4ncc(C5CCNC5)nc4s3)cc(F)c2n1` (stereo not drawn) [Compound 146, N-(8-fluoro-2-methylimidazo[1,2-a]pyridin-6-yl)-3-(pyrrolidin-3-yl)thieno[2,3-b]pyrazine-6-carboxamide] had an IC50 of less than 100 nM.

With `Cc1cn2cc(NC(=O)c3nc4ccc(N5CC[C@@H](N(C)C)C5)nc4s3)cc(F)c2n1` [Compound 89, 5-[(3R)-3-(dimethylamino)pyrrolidin-1-yl]-N-(8-fluoro-2-methyl-imidazo[1,2-a]pyridin-6-yl)thiazolo[5,4-b]pyridine-2-carboxamide], the IC50 was less than 100 nM.

`Cc1cn2cc(NC(=O)c3cc4ccc(NC5CN(C)CC5F)nc4s3)nc(C)c2n1` (stereo not drawn) [Compound 214, N-(2,8-dimethylimidazo[1,2-a]pyrazin-6-yl)-6-((4-fluoro-1-methylpyrrolidin-3-yl)amino)thieno[2,3-b]pyridine-2-carboxamide] gave an IC50 of less than 100 nM.

In turn, `COc1nc(NC(=O)c2cc3ccc(N4CCC(N(C)C)C4)nc3s2)cn2cc(C)nc12` (single isomer, unassigned) [Compound 198] came in with an IC50 of less than 100 nM.

Molecule `Cc1cn2cc(NC(=O)c3cc4ccc(N5C[C@H]6CCN(C)[C@H]6C5)nc4s3)cc(F)c2n1` [Compound 70, N-(8-fluoro-2-methylimidazo[1,2-a]pyridin-6-yl)-6-((3aR,6aR)-1-methylhexahydropyrrolo[3,4-b]pyrrol-5(1H)-yl)thieno[2,3-b]pyridine-2-carboxamide] came in with an IC50 of less than 100 nM.

For the molecule `Cc1cn2cc(NC(=O)c3nc4ccc(C5=CC(C)(C)NC(C)(C)C5)nc4s3)cc(F)c2n1` [Compound 132, N-(8-fluoro-2-methylimidazo[1,2-a]pyridin-6-yl)-5-(2,2,6,6-tetramethyl-1,2,3,6-tetrahydropyridin-4-yl)thiazolo[5,4-b]pyridine-2-carboxamide], the IC50 is less than 100 nM.

In turn, `Cc1cn2cc(NC(=O)c3cc4ccc(OC5C[C@@H](C)N[C@H](C)C5)nc4s3)cc(F)c2n1` (stereo partly drawn) [Compound 157] yielded an IC50 of 100 to 1000 nM.

Usually IC50 stands for the concentration needed to halve the response being measured. A high value points to weaker potency in that assay.
